From patent publication US12678446B2 (PFIZER INC., priority 2020, dated 2026)
Where two headings read alike, the source gives them in different places.

What was measured:
[1] = test system: RSV (RSV A2 ECACC, 0709161v); test: RSV plaque reduction assay; assay type: cell-based, respiratory syncytial virus; settings: mean of at least two experiments unless noted (n = 1)
Outline: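 Eight-point compound dilutions were premixed with RSV A2 (100 PFU/well) and applied to confluent Hep-G2 cells for 2 h, followed by a 2-day incubation at 37° C. under compound-containing 0.8% CMC overlay. EC50 comes from immunostained plaque counts relative to untreated virus wells, averaged over ≥2 runs.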

Hep-G2 cells = test: cell toxicity CC50; assay type: cell-based; settings: mean of at least two experiments, read-out: Cell Cytotoxicity CC50
cell toxicity CC50 = assay type: cell-based; settings: human; Hep-G2 cells; mean of at least two experiments; read-out: Cell Cytotoxicity CC50
[2] = RSV A2 in Hep-G2 cells, read-out: RSV A2 Plaque EC50
[3] = read-out: RSV A2 Plaque EC50, RSV A2 in Hep-G2 cells
[4] = human respiratory syncytial virus, HepG2, read-out: RSV A2 Plaque EC50, RSV A2 in Hep-G2 cells

Row | Molecule | EC50 [1, 2] [nM] | CC50 (Hep-G2 cells) [nM] | EC50 [1, 3] [nM] | EC50 [1, 4] [nM] | CC50 (cell toxicity CC50) [nM]
1 | 2-(2,6-Difluorophenyl)-N-[(3S)-9-fluoro-2-oxo-5-phenyl-1,3-dihydro-1,4-benzodiazepin-3-yl]-6,7-dihydro-5H-pyrazolo[5,1-b][1,3]oxazine-3-carboxamide [Example 196] | 25 | > 25000 |  |  | 
2 | 2-[2-Fluoro-4- (hydroxymethyl)phe- nyl]-N-[(3S)-9- fluoro-2-oxo-5- phenyl-1,3-dihydro- 1,4-benzodiazepin-3- yl]-6,7-dihydro-5H- pyrazolo[5,1- b][1,3]oxazine-3- carboxamide [Example 134] | 83 | > 25000 |  |  | 
3 | O=C(N[C@H]1N=C(c2ccccc2)c2cccc(F)c2NC1=O)c1c(-c2ccccc2F)nn2c1OCC(CO)C2 (single isomer, unassigned) [Example 110-2, (6S*)-N-[(3S)-9-fluoro-2-oxo-5-phenyl-1,3-dihydro-1,4-benzodiazepin-3-yl]-2-(2-fluorophenyl)-6-(hydroxymethyl)-6,7-dihydro-5H-pyrazolo[5,1-b][1,3]oxazine-3-carboxamide] |  | > 25000 | 61 |  | 
4 | O=C(N[C@H]1N=C(c2ccccc2)c2cccc(F)c2NC1=O)c1c(-c2c(F)cccc2F)nn2c1OCC(CO)C2 (single isomer, unassigned) [Example 129-2, (6S*)-2-(2,6-Difluorophenyl)-N-[(3S)-9-fluoro-2-oxo-5-phenyl-1,3-dihydro-1,4-benzodiazepin-3-yl]-6-(hydroxymethyl)-6,7-dihydro-5H-pyrazolo[5,1-b][1,3]oxazine-3-carboxamide] |  | > 25000 | 73 |  | 
5 | O=C(N[C@H]1N=C(c2ccccc2)c2ccccc2NC1=O)c1c(-c2c(F)cccc2F)nn2c1OC(CO)CC2 (single isomer, unassigned) [Example 188-2, (5S*)-2-(2,6-Difluorophenyl)-5-(hydroxymethyl)-N-[(3S)-2-oxo-5-phenyl-1,3-dihydro-1,4-benzodiazepin-3-yl]-6,7-dihydro-5H-pyrazolo[5,1-b][1,3]oxazine-3-carboxamide] |  | > 25000 | 281 |  | 
6 | O=C(N[C@H]1N=C(c2ccccc2)c2cccc(F)c2NC1=O)c1c(-c2c(F)cccc2F)nn2c1OC(CO)CC2 (single isomer, unassigned) [Example 189-2, (5S*)-2-(2,6-Difluorophenyl)-N-[(3S)-9-fluoro-2-oxo-5-phenyl-1,3-dihydro-1,4-benzodiazepin-3-yl]-5-(hydroxymethyl)-6,7-dihydro-5H-pyrazolo[5,1-b][1,3]oxazine-3-carboxamide] |  | > 25000 | 72 |  | 
7 | O=C(N[C@H]1N=C(c2ccccc2)c2cccc(F)c2NC1=O)c1c(-c2ccccc2F)nn2c1OC(CO)CC2 (single isomer, unassigned) [Example 190-2, (5S*)-2-(2-Fluorophenyl)-5-(hydroxymethyl)-N-[(3S)-9-fluoro-2-oxo-5-phenyl-1,3-dihydro-1,4-benzodiazepin-3-yl]-6,7-dihydro-5H-pyrazolo [5,1-b][1,3]oxazine-3-carboxamide] |  | > 25000 | 154 |  | 
8 | CCNCC1COc2c(C(=O)N[C@H]3N=C(c4ccccc4)c4cccc(F)c4NC3=O)c(-c3ccccc3F)nn2C1 (stereo partly drawn) [Example 192, 6-(Ethylaminomethyl)-N-[(3S)-9-fluoro-2-oxo-5-phenyl-1,3-dihydro-1,4-benzodiazepin-3-yl]-2-(2-fluorophenyl)-6,7-dihydro-5H-pyrazolo[5,1-b][1,3]oxazine-3-carboxamide] |  |  |  | 243 | > 24400
9 | CSc1ccc(-c2nn3c(c2C(=O)N[C@H]2N=C(c4ccccc4)c4cccc(F)c4NC2=O)OCCC3)c(F)c1 [Example 193, 2-(2-Fluoro-4-methylsulfanylphenyl)-N-[(3S)-9-fluoro-2-oxo-5-phenyl-1,3-dihydro-1,4-benzodiazepin-3-yl]-6,7-dihydro-5H-pyrazolo[5,1-b][1,3]oxazine-3-carboxamide] |  |  |  | 19 | > 25000
10 | C[S+]([O-])c1ccc(-c2nn3c(c2C(=O)N[C@H]2N=C(c4ccccc4)c4cccc(F)c4NC2=O)OCCC3)c(F)c1 (stereo partly drawn) [Example 194, 2-(2-Fluoro-4-methylsulfinylphenyl)-N-[(3S)-9-fluoro-2-oxo-5-phenyl-1,3-dihydro-1,4-benzodiazepin-3-yl]-6,7-dihydro-5H-pyrazolo[5,1-b][1,3]oxazine-3-carboxamide] |  |  |  | 43 | > 25000
11 | O=C(N[C@H]1N=C(c2ccccc2)c2cccc(F)c2NC1=O)c1c(Br)nn2c1OCCC2 [Example 195, 2-Bromo-N-[(3S)-9-fluoro-2-oxo-5-phenyl-1,3-dihydro-1,4-benzodiazepin-3-yl]-6,7-dihydro-5H-pyrazolo[5,1-b][1,3]oxazine-3-carboxamide] |  |  |  | 355 | > 25000
12 | CCS(=O)(=O)c1ccc(-c2nn3c(c2C(=O)N[C@H]2N=C(c4ccccc4)c4cccc(F)c4NC2=O)O[C@H](C)CC3)c(F)c1 [Example 197, (5R)-2-(4-Ethylsulfonyl-2-fluorophenyl)-N-[(3S)-9-fluoro-2-oxo-5-phenyl-1,3-dihydro-1,4-benzodiazepin-3-yl]-5-methyl-6,7-dihydro-5H-pyrazolo[5,1-b][1,3]oxazine-3-carboxamide] |  |  |  | 97 | > 25000
13 | C[C@@H]1CCn2nc(-c3cc(S(C)(=O)=O)ccc3F)c(C(=O)N[C@H]3N=C(c4ccccc4)c4cccc(F)c4NC3=O)c2O1 [Example 198, (5R)-2-(2-Fluoro-5-methylsulfonylphenyl)-N-[(3S)-9-fluoro-2-oxo-5-phenyl-1,3-dihydro-1,4-benzodiazepin-3-yl]-5-methyl-6,7-dihydro-5H-pyrazolo[5,1-b][1,3]oxazine-3-carboxamide] |  |  |  | 35 | > 25000
14 | C[C@@H]1CCn2nc(-c3ccc(S(N)(=O)=O)cc3F)c(C(=O)N[C@H]3N=C(c4ccccc4)c4cccc(F)c4NC3=O)c2O1 [Example 199, (5R)-N-[(3S)-9-Fluoro-2-oxo-5-phenyl-1,3-dihydro-1,4-benzodiazepin-3-yl]-2-(2-fluoro-4-sulfamoylphenyl)-5-methyl-6,7-dihydro-5H-pyrazolo[5,1-b][1,3]oxazine-3-carboxamide] |  |  |  | 64 | > 25000
15 | C[C@@H]1CCn2nc(-c3ccc(S(=O)(=O)N(C)C)cc3F)c(C(=O)N[C@H]3N=C(c4ccccc4)c4cccc(F)c4NC3=O)c2O1 [Example 200, (5R)-2-[4-(Dimethylsulfamoyl)-2-fluorophenyl]-N-[(3S)-9-fluoro-2-oxo-5-phenyl-1,3-dihydro-1,4-benzodiazepin-3-yl]-5-methyl-6,7-dihydro-5H-pyrazolo[5,1-b][1,3]oxazine-3-carboxamide] |  |  |  | 1 | > 25000
16 | CCS(=O)(=O)N1CCC(c2nn3c(c2C(=O)N[C@H]2N=C(c4ccccc4)c4cccc(F)c4NC2=O)O[C@H](C)CC3)CC1 [Example 201, (5R)-2-(1-Ethylsulfonylpiperidin-4-yl)-N-[(3S)-9-fluoro-2-oxo-5-phenyl-1,3-dihydro-1,4-benzodiazepin-3-yl]-5-methyl-6,7-dihydro-5H-pyrazolo[5,1-b][1,3]oxazine-3-carboxamide] |  |  |  | 49 | > 25000
17 | C[C@@H]1Cn2nc(-c3ccccc3F)c(C(=O)N[C@H]3N=C(c4ccccc4)c4ccccc4NC3=O)c2O1 [Example 202, (2R)-6-(2-Fluorophenyl)-2-methyl-N-[(3S)-2-oxo-5-phenyl-1,3-dihydro-1,4-benzodiazepin-3-yl]-2,3-dihydropyrazolo[5,1-b][1,3]oxazole-7-carboxamide] |  |  |  | 127 | > 25000
